{"source": "paper PMC4406830", "about": "(Biochemistry, 2015)", "key": {"MtmC [1]": {"biological_target": "T1, MtmC (Streptomyces argillaceus, UniProt Q194Q4)", "T1 sequence (Q194Q4 1-420)": "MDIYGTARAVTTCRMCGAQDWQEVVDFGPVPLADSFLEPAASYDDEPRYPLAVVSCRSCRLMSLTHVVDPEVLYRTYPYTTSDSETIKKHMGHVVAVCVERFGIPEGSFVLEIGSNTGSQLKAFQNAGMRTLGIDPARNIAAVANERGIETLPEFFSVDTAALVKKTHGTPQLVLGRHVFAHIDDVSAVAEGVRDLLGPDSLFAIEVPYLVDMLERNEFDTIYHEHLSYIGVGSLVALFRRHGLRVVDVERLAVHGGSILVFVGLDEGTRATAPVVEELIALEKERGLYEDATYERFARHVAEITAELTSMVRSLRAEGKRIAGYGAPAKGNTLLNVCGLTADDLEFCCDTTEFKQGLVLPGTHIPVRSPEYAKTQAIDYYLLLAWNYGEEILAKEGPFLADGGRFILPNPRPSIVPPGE", "assay": "crystal structure, […] Å", "format": "binding", "conditions": "binary complex; central-domain site; crystals pH 5.5"}, "MtmC [2]": {"biological_target": "T1, MtmC", "assay": "crystal structure, […] Å", "format": "binding", "conditions": "binary complex; C-terminal domain site; crystals pH 5.5"}}}
{"smiles": "C[S+](CC[C@H](N)C(=O)O)C[C@H]1O[C@@H](n2cnc3c(N)ncnc32)[C@H](O)[C@@H]1O", "note": "(some centres unmarked) [SAM]", "values": [{"measurement": "crystal structure, 2.2 Å", "setting": "MtmC [1]", "result": "4RVD (complex with SAM)"}]}
{"smiles": "Cc1cn([C@H]2C[C@H](O)[C@@H](COP(=O)(O)OP(=O)(O)O)O2)c(=O)[nH]c1=O", "note": "[TDP]", "values": [{"measurement": "crystal structure, 2.7 Å", "setting": "MtmC [2]", "result": "4RVF (complex with TDP)"}]}
